Our source for the IC50 values is US20260250290A1 (BRISTOL-MYERS SQUIBB COMPANY, priority 2023, published 2026).

The experiment addresses T1, full length SGK1 (Homo sapiens, UniProt O00141).
T1 construct: 125 μM full length SGK1 (Life Technologies Part #PR7358A); purchased Life Technologies PR7358A
T1 sequence (O00141 1-431): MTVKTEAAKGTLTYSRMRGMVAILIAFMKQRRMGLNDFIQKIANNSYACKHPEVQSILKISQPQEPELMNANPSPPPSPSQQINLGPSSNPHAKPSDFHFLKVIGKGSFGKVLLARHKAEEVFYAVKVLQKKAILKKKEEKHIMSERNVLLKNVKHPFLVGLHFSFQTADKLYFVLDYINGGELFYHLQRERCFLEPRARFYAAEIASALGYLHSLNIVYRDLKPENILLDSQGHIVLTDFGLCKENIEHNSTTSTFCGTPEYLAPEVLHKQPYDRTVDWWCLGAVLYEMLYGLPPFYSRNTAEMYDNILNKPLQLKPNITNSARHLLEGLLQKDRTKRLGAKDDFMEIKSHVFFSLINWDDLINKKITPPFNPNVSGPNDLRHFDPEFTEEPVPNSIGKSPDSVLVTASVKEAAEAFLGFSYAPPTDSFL
The experiment is described as follows: SGK1 inhibition Assay A (Caliper LabChip electrophoretic separation of fluorescent peptide substrate and phosphorylated product). Particulars: 20 μM ATP, 40 min incubation. In kind it is biochemical.

SMILES strings stand for the structures. Counter-ions that a name gives are not always drawn. Like-named read-outs stand apart in the source and are kept apart here.

Take `CC(C)n1nccc1-c1cc(N2CCC[C@@H](NC(=O)c3cccc(N4CCN(C)CC4)n3)C2)c2c(N)ncnn12` [Example 796, (R)-N-(1-(4-amino-7-(1-isopropyl-1H-pyrazol-5-yl)pyrrolo[2,1-f][1,2,4]triazin-5-yl)piperidin-3-yl)-6-(4-methylpiperazin-1-yl)picolinamide]: the half-maximal inhibitory concentration (IC50) (Assay A, read-out: SGK1 IC50) came to 785 nM.
The same measure, in the same setting: next, `CN1CCN(c2cccc(C(=O)N[C@@H]3CCCN(c4cc(-c5ccc(=O)n(C)c5)n5ncnc(N)c45)C3)n2)CC1` [Example 797, (R)-N-(1-(4-amino-7-(1-methyl-6-oxo-1,6-dihydropyridin-3-yl)pyrrolo[2,1-f][1,2,4]triazin-5-yl)piperidin-3-yl)-6-(4-methylpiperazin-1-yl)picolinamide]: 13 nM.
For `CN1CCN(c2cccc(C(=O)N[C@@H]3CCCN(c4cc(-c5ccc(=O)[nH]c5)n5ncnc(N)c45)C3)n2)CC1` [Example 798, (R)-N-(1-(4-amino-7-(6-oxo-1,6-dihydropyridin-3-yl)pyrrolo[2,1-f][1,2,4]triazin-5-yl)piperidin-3-yl)-6-(4-methylpiperazin-1-yl)picolinamide], the IC50 (Assay A, read-out: SGK1 IC50) was found to be 21 nM.
`CCn1cc(-c2cc(N3CCC[C@@H](NC(=O)c4cccc(N5CCN(C)CC5)n4)C3)c3c(N)ncnn23)ccc1=O` [Example 799, (R)-N-(1-(4-amino-7-(1-ethyl-6-oxo-1,6-dihydropyridin-3-yl)pyrrolo[2,1-f][1,2,4]triazin-5-yl)piperidin-3-yl)-6-(4-methylpiperazine-1-yl)picolinamide]: the IC50 (Assay A, read-out: SGK1 IC50) was 3 nM.
Consider `CN1CCN(c2cccc(C(=O)N[C@@H]3CCCN(c4cc(-c5ccc(-n6cncn6)nc5)n5ncnc(N)c45)C3)n2)CC1` [Example 800, (R)-N-(1-(7-(6-(1H-1,2,4-triazol-1-yl)pyridin-3-yl)-4-aminopyrrolo[2,1-f][1,2,4]triazin-5-yl)piperidin-3-yl)-6-(4-methylpiperazin-1-yl)picolinamide], for which the IC50 (Assay A, read-out: SGK1 IC50) was determined as 17 nM.
Still for that read-out and setting: next, `CC(=O)c1ccc(-c2cc(N3CCC[C@@H](NC(=O)c4cccc(N5CCN(C)CC5)n4)C3)c3c(N)ncnn23)cc1` [Example 801, (R)-N-(1-(7-(4-acetylphenyl)-4-aminopyrrolo[2,1-f][1,2,4]triazin-5-yl)piperidin-3-yl)-6-(4-methylpiperazin-1-yl)picolinamide]: 26 nM; `CN1CCN(c2cccc(C(=O)N[C@@H]3CCCN(c4cc(-c5ccn(C)c(=O)c5)n5ncnc(N)c45)C3)n2)CC1` [Example 802, (R)-N-(1-(4-amino-7-(1-methyl-2-oxo-1,2-dihydropyridin-4-yl)pyrrolo[2,1-f][1,2,4]triazin-5-yl)piperidin-3-yl)-6-(4-methylpiperazin-1-yl)picolinamide]: 237 nM.
In the case of `CN1CCN(c2cccc(C(=O)N[C@@H]3CCCN(c4cc(-c5cnn(C6CCOC6)c5)n5ncnc(N)c45)C3)n2)CC1` (stereo partly drawn) [Example 803, N-((3R)-1-(4-amino-7-(1-(tetrahydrofuran-3-yl)-1H-pyrazol-4-yl)pyrrolo[2,1-f][1,2,4]triazin-5-yl)piperidin-3-yl)-6-(4-methylpiperazin-1-yl)picolinamide], the IC50 (Assay A, read-out: SGK1 IC50) turned out to be 2050 nM.
For `COc1ccc(OC(=O)N[C@@H]2CCCN(c3cc(C4=CCN(C(C)=O)C4)n4ncnc(N)c34)C2)cc1` [Example 812, 4-methoxyphenyl (R)-(1-(7-(1-acetyl-2,5-dihydro-1H-pyrrol-3-yl)-4-aminopyrrolo[2,1-f][1,2,4]triazin-5-yl)piperidin-3-yl)carbamate TFA salt], the IC50 (Assay A, read-out: SGK1 IC50) turned out to be 984 nM.
On the same count and under the same terms, next, `CC(=O)N1CC=C(c2cc(N3CCC[C@@H](NC(=O)c4cccc(N5CCNCC5)n4)C3)c3c(N)ncnn23)C1` [Example 813, (R)—N-(1-(7-(1-acetyl-2,5-dihydro-1H-pyrrol-3-yl)-4-aminopyrrolo[2,1-f][1,2,4]triazin-5-yl)piperidin-3-yl)-6-(piperazin-1-yl)picolinamide]: 32 nM; `CC(=O)N1CC=C(c2cc(N3CCC[C@@H](NC(=O)c4cccc(N5C[C@H]6CC[C@@H](C5)N6)n4)C3)c3c(N)ncnn23)C1` [Example 814, N—((R)-1-(7-(1-acetyl-2,5-dihydro-1H-pyrrol-3-yl)-4-aminopyrrolo[2,1-f][1,2,4]triazin-5-yl)piperidin-3-yl)-6-((1R,5S)-3,8-diazabicyclo[3.2.1]octan-3-yl)picolinamide]: 9 nM.
On the same count and under the same terms, next, `CC(=O)N1CC=C(c2cc(N3CCC[C@@H](NC(=O)c4cc5c(s4)CCNC5)C3)c3c(N)ncnn23)C1` [Example 815, (R)—N-(1-(7-(1-acetyl-2,5-dihydro-1H-pyrrol-3-yl)-4-aminopyrrolo[2,1-f][1,2,4]triazin-5-yl)piperidin-3-yl)-4,5,6,7-tetrahydrothieno[3,2-c]pyridine-2-carboxamide TFA salt]: 104 nM.
Still for that read-out and setting: next, `C#Cc1cc(N2CCC[C@@H](NC(=O)c3ccc(Cl)s3)C2)c2c(N)ncnn12` [Example 862, (R)—N-(1-(4-amino-7-ethynylpyrrolo[2,1-f][1,2,4]triazin-5-yl)piperidin-3-yl)-5-chlorothiophene-2-carboxamide]: 111 nM.
For `CC(C)(C)OC(=O)CCn1cc(-c2cc(N3CCC[C@@H](NC(=O)c4ccc(Cl)s4)C3)c3c(N)ncnn23)nn1` [Example 863, tert-butyl (R)-3-(4-(4-amino-5-(3-(5-chlorothiophene-2-carboxamido)piperidin-1-yl)pyrrolo[2,1-f][1,2,4]triazin-7-yl)-1H-1,2,3-triazol-1-yl)propanoate], the IC50 (Assay A, read-out: SGK1 IC50) amounted to 467 nM.
The same measure, in the same setting: next, `Nc1ncnn2c(-c3cn(CCC(=O)O)nn3)cc(N3CCC[C@@H](NC(=O)c4ccc(Cl)s4)C3)c12` [Example 864, (R)-3-(4-(4-amino-5-(3-(5-chlorothiophene-2-carboxamido)piperidin-1-yl)pyrrolo[2,1-f][1,2,4]triazin-7-yl)-1H-1,2,3-triazol-1-yl)propanoic acid]: 120 nM; `NC(=O)Cn1cc(-c2cc(N3CCC[C@@H](NC(=O)c4ccc(Cl)s4)C3)c3c(N)ncnn23)nn1` [Example 865, (R)—N-(1-(4-amino-7-(1-(2-amino-2-oxoethyl)-1H-1,2,3-triazol-4-yl)pyrrolo[2,1-f][1,2,4]triazin-5-yl)piperidin-3-yl)-5-chlorothiophene-2-carboxamide]: 731 nM; `Nc1ncnn2c(-c3cn(C4CCNC4)nn3)cc(N3CCC[C@@H](NC(=O)c4ccc(Cl)s4)C3)c12` (stereo partly drawn) [Example 866, N-((3R)-1-(4-amino-7-(1-(pyrrolidin-3-yl)-1H-1,2,3-triazol-4-yl)pyrrolo[2,1-f][1,2,4]triazin-5-yl)piperidin-3-yl)-5-chlorothiophene-2-carboxamide]: 517 nM.
Still for that read-out and setting: next, `Nc1ncnn2c(-c3cn(CC(=O)O)nn3)cc(N3CCC[C@@H](NC(=O)c4ccc(Cl)s4)C3)c12` [Example 867, (R)-2-(4-(4-amino-5-(3-(5-chlorothiophene-2-carboxamido)piperidin-1-yl)pyrrolo[2,1-f][1,2,4]triazin-7-yl)-1H-1,2,3-triazol-1-yl)acetic acid]: 213 nM; `Cn1cc(-c2cc(N3CCC[C@@H](NC(=O)c4ccc(Cl)s4)C3)c3c(N)ncnn23)nn1` [Example 868, (R)—N-(1-(4-amino-7-(1-methyl-1H-1,2,3-triazol-4-yl)pyrrolo[2,1-f][1,2,4]triazin-5-yl)piperidin-3-yl)-5-chlorothiophene-2-carboxamide]: 114 nM.
For the compound `CC(=O)N1CC=C(c2cc(N3CCC[C@@H](NC(=O)c4cccc(S(=O)(=O)F)c4)C3)c3c(N)ncnn23)C1` [Example 869, (R)-3-((1-(7-(1-acetyl-2,5-dihydro-1H-pyrrol-3-yl)-4-aminopyrrolo[2,1-f][1,2,4]triazin-5-yl)piperidin-3-yl)carbamoyl)benzenesulfonyl fluoride], the IC50 (SGK1 IC50, Assay A) amounted to 125 nM.
On the same count and under the same terms, next, `CC(=O)N1CC=C(c2cc(N3CCC[C@@H](NC(=O)c4ccc(S(=O)(=O)F)cc4)C3)c3c(N)ncnn23)C1` [Example 870, (R)-4-((1-(7-(1-acetyl-2,5-dihydro-1H-pyrrol-3-yl)-4-aminopyrrolo[2,1-f][1,2,4]triazin-5-yl)piperidin-3-yl)carbamoyl)benzenesulfonyl fluoride]: 32 nM.
`Nc1ncnn2c(-c3ccc4cnoc4c3)cc(N3CCC[C@@H](NC(=O)c4ccc(Cl)s4)C3)c12` [Example 871, (R)—N-(1-(4-amino-7-(benzo[d]isoxazol-6-yl)pyrrolo[2,1-f][1,2,4]triazin-5-yl)piperidin-3-yl)-5-chlorothiophene-2-carboxamide]: the IC50 (Assay A, read-out: SGK1 IC50) amounted to 6 nM.
Still for that read-out and setting: next, `CN(C)CCOc1cc(Cl)sc1C(=O)N[C@@H]1CCCN(c2cc(-c3ccc4cnoc4c3)n3ncnc(N)c23)C1` [Example 872, (R)—N-(1-(4-amino-7-(benzo[d]isoxazol-6-yl)pyrrolo[2,1-f][1,2,4]triazin-5-yl)piperidin-3-yl)-5-chloro-3-(2-(dimethylamino)ethoxy)thiophene-2-carboxamide]: 3 nM; `CC(=O)N1CC=C(c2cc(N3CCC[C@@H](NC(=O)Oc4ccccc4)C3)c3c(N)ncnn23)C1` [Example 873, phenyl (R)-(1-(7-(1-acetyl-2,5-dihydro-1H-pyrrol-3-yl)-4-aminopyrrolo[2,1-f][1,2,4]triazin-5-yl)piperidin-3-yl)carbamate]: 936 nM.
